# Results as given in US20200237875A1, “FORMULATIONS AND METHODS FOR TREATMENT OF FIBROMYALGIA AND RELATED MYOFASCIAL PAIN DISORDERS” (SYNLEV PHARMACEUTICALS CORPORATION, priority 2019, published 2020).
# Entries after “also recorded” stand apart in the source; their conditions may differ.
# Columns and labels:
# [1] = test system: patients with fibromyalgia and insulin resistance; test: Retrospective review of Numeric Pain Rating Scale (NPRS) pain scores before and after treatment; type: in vivo, human
# Protocol: Data was obtained from the review of various patient populations as followed: First, the pain scores of two populations of patients were reviewed. Group 1 consisted of 16 patients with fibromyalgia and insulin resistance (HbA1c values of 5.7 or higher) who were prescribed metformin 500 mg twice a day for insulin resistance. In this group, metformin had been added to the “standard treatment” for fibromyalgia. The “standard treatment” (ST) consisted of norepinephrine reuptake inhibitors (amitriptyline, duloxetine or milnacipran) and/or membrane-stabilizing agents (gabapentin or pregabalin). […]
# Second, the pain scores of another group of patients with insulin resistance and fibromyalgia, Group 2, who had been treated with […], a class of drugs that reduce insulin resistance by a mechanism different from metformin were analyzed. […]
# Because peripheral neuropathies (including small fiber neuropathy) that are associated with insulin resistance may start at very early stages of pre-diabetes, there is a growing trend among experts to begin early pharmacological interventions to correct this abnormality, particularly when insulin resistance is associated with neuropathy or other risk factors. […] Pain scores were routinely recorded by the Numeric Pain Rating Scale (NPRS), at each clinical encounter. […]
# [2] = in vivo; cited from earlier work
# fibromyalgia = settings: cited from earlier work
SMILES,"change in pain scores (NPRS), in words ([1]; Group 2, 10 patients: 5 metformin alone, 5 PPD-4 inhibitor alone, no ST)","retention of the analgesic effect ([1]; long-term, refers to a Table 3 that is not given)",individuals intolerant to metformin [2],NNT (numbers needed to treat) (fibromyalgia)
CN(C)C(=N)N=C(N)N [metformin],comparable reductions in pain scores; also recorded: this improvement was only partial,long-term retention of the analgesic effect,at least 20%,
CN(C)CCC=C1c2ccccc2CCc2ccccc21 [amitriptyline],,,,4
CNCC[C@H](Oc1cccc2ccccc12)c1cccs1 [duloxetine],,,,6
